Laboratory results taken from patent publication US7022701B2, “Indolylalkylamine derivatives as 5-hydroxytryptamine-6 ligands” (Wyeth, priority 2001, dated 2006).
Where a name gives a salt, the structure may show the parent alone. Read-outs that look alike come from different tables or passages of the source.

Target: T1, human cloned 5-HT6 receptors (Homo sapiens, UniProt P50406)
T1 construct: expressed in transfected cells; host or cells: Hela cells
Assay: 5-HT6 binding affinity, [3H]-LSD displacement on membranes of Hela cells expressing the receptor
Method: The affinity of test compounds for the serotonin 5-HT6 receptor is evaluated in the following manner. Cultured Hela cells expressing human cloned 5-HT6 receptors are harvested and centrifuged at low speed (1,000×g) for 10.0 min to remove the culture media. The harvested cells are suspended in half volume of fresh physiological phosphate buffered saline solution and recentrifuged at the same speed. This operation is repeated. The collected cells are then homogenized in ten volumes of 50 mM Tris.HCl (pH 7.4) and 0.5 mM EDTA. The homogenate is centrifuged at 40,000×g for 30.0 min and the precipitate is collected. The obtained pellet is resuspended in 10 volumes of Tris.HCl buffer and recentrifuged at the same speed. The final pellet is suspended in a small volume of Tris.HCl buffer and the tissue protein content is determined in aliquots of 10–25 μl volumes. […] The volume of the suspended cell membranes is adjusted to give a tissue protein concentration of 1.0 mg/ml of suspension. The prepared membrane suspension (10 times concentrated) is aliquoted in 1.0 ml volumes and stored at −70° C. until used in subsequent binding experiments.
Binding experiments are performed in a 96 well microtiter plate format, in a total volume of 200 μl. […] The test compounds are added in 20.0 μl volume.
The bound complex caught on the filter disk is allowed to air dry and the radioactivity is measured in a Packard TopCount® equipped with six photomultiplier detectors, after the addition of 40.0 μl Microscint®-20 scintillant to each shallow well. The unifilter plate is heat-sealed and counted in a PackardTopCount® with a tritium efficiency of 31.0%.
Binding in the presence of varying concentrations of test compound is expressed as a percentage of specific binding in the absence of test compound. The results are plotted as log % bound versus log concentration of test compound.

[1] = [3H]-LSD 3.0 nM, membranes of Hela cells expressing human cloned 5-HT6 receptors, 120 min at room temperature, read-out: 5-HT6 Binding Ki

T1 sequence (P50406 whole entry): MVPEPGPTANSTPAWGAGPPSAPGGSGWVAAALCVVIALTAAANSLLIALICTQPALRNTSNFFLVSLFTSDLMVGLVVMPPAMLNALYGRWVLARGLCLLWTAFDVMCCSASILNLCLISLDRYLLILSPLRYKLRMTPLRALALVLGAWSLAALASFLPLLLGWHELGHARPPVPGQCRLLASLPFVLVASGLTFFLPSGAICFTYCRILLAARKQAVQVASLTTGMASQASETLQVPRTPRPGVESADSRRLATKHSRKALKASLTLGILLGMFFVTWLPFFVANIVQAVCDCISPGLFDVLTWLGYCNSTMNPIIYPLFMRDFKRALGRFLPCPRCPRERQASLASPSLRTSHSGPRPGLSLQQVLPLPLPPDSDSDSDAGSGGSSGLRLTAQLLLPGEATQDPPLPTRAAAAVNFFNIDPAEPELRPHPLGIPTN

| Compound | Ki [µM] | Ki [1] [µM] |
| --- | --- | --- |
| CNCCc1cn(S(=O)(=O)c2c(Cl)nc3sccn23)c2ccccc12 [Example 3, (2-[1-(6–Chloroimidazo[2,1-b]thiazole-5-sulfonyl)-1H-indol-3-yl]ethyl}methyl amine] | 0.019 |  |
| CN(C)CCc1cn(S(=O)(=O)c2c(Cl)nc3sccn23)c2ccccc12 [Example 4, {2-[1-(6-chloro-imidazo[2,1-b][1,3]thiazole-5-sulfonyl)-1H-indol-3-yl]ethyl}dimethylamine] | 0.001 |  |
| O=S(=O)(c1c(Cl)nc2sccn12)n1cc(CCNCc2ccccc2)c2ccccc21 [Example 5, benzyl-{2-[1-(6-chloro-imidazo[2,1-b][1,3]thiazole-5-sulfonyl)-1H-indol-3-yl]ethyl}amine] | 0.004 |  |
| O=S(=O)(c1c(Cl)nc2sccn12)n1cc(CCN2CCCC2)c2ccccc21 [Example 6, 1-(6-chloro-imidazo[2,1-b][1,3]thiazole-5-sulfonyl)-3-(2-pyrrolidin-1-ylethyl)-1H-indole] | 0.005 |  |
| CN1CCN(CCc2cn(S(=O)(=O)c3c(Cl)nc4sccn34)c3ccccc23)CC1 [Example 7, 1-(6-chloro-imidazo[2,1-b][1,3]thiazole-5-sulfonyl)-3-[2-(4-methylpiperazin-1-yl)ethyl]-1H-indole] | 0.007 |  |
| CN(CCc1cn(S(=O)(=O)c2c(Cl)nc3sccn23)c2ccccc12)Cc1ccccc1 [Example 9, benzyl-{2-[1-(6-chloro-imidazo[2,1-b][1,3]thiazole-5-sulfonyl)-1H-indol-3-yl]ethyl}methylamine] | 0.005 |  |
| O=S(=O)(c1c(Cl)nc2sccn12)n1cc(CCNCCc2ccccc2)c2ccccc21 [Example 10, {2-[1-(6-chloro-imidazo[2,1-b][1,3]thiazole-5-sulfonyl)-1H-indol-3-yl]ethyl}phenethylamine] | 0.041 |  |
| O=C(O)C1CCCN1CCc1cn(S(=O)(=O)c2c(Cl)nc3sccn23)c2ccccc12 (stereo not shown) [Example 11, 1-{2-[1-(6-chloro-imidazo[2,1-b][1,3]thiazole-5-sulfonyl)-1H-indol-3-yl]ethyl}pyrrolidine-2-carboxylic acid] | 0.03 |  |
| CC(N)Cc1cn(S(=O)(=O)c2c(Cl)nc3sccn23)c2ccccc12 (stereo not shown) [Example 12, 2[1-(6–Chloroimidazo[2,1-b]thiazole-5-sulfonyl)-1H-indol-3-yl]-1-methylethylamine Hydrochloride] | 0.002 |  |
| C[C@H](N)Cc1cn(S(=O)(=O)c2c(Cl)nc3sccn23)c2ccccc12 [Example 15, (S)-2-[1-(6–Chloroimidazo[2,1-b]thiazole-5-sulfonyl)-1H-indol-3-yl]-1-methylethylamine Hydrochloride] | 0.006 |  |
| C[C@@H](N)Cc1cn(S(=O)(=O)c2c(Cl)nc3sccn23)c2ccccc12 [Example 16, ®-2-[1-(6 Chloroimidazo[2,1-b]thiazole-5-sulfonyl)-1H-indol-3-yl]-1-methylethylamine Hydrochloride] | 0.002 |  |
| NCCc1cn(S(=O)(=O)c2c(Cl)nc3ccccn23)c2ccccc12 [Example 17, 2-[1-(2-chloro-imidazo[1,2-a]pyridine-3-sulfonyl)-1H-indol-3-yl]ethylamine] | 0.014 |  |
| NCCc1cn(S(=O)(=O)c2c(Cl)nc3sc(Cl)cn23)c2ccccc12 [Example 18, 2-[1-(2,6-dichloro-imidazo[2,1-b][1,3]thiazole-5-sulfonyl)-1H-indol-3-yl]ethylamine] | 0.008 |  |
| CNCCc1cn(S(=O)(=O)c2c(Cl)nc3ccccn23)c2ccccc12 [Example 20, {2-[1-(2-chloro-imidazo[1,2-a]pyridine-3-sulfonyl)-1H-indol-3-yl]ethyl}methylamine] | 0.011 |  |
| CNCCc1cn(S(=O)(=O)c2c(Cl)nc3sc(Cl)cn23)c2ccccc12 [Example 21, {2-[1-(2,6-dichloro-imidazo[2,1-b][1,3]thiazole-5-sulfonyl)-1H-indol-3-yl]ethyl)methylamine] | 0.012 |  |
| CN(C)CCc1cn(S(=O)(=O)c2c(Cl)nc3ccccn23)c2ccccc12 [Example 23, {2-[1-(2-chloro-imidazo[1,2-a]pyridine-3-sulfonyl)-1H-indol-3-yl]ethyl}dimethyamine] |  | 0.01 |

| Compound | Ki [µM] | Ki [1] [µM] |
| --- | --- | --- |
| CN(C)CCc1cn(S(=O)(=O)c2c(Cl)nc3sc(Cl)cn23)c2ccccc12 [Example 24, {2-[1-(2,6-dichloro-imidazo[2,1-b][1,3]thiazole-5-sulfonyl)-1H-indol-3-yl]ethyl}dimethylamine] | 0.01 |  |
| COc1ccc2c(c1)c(CCN)cn2S(=O)(=O)c1c(Cl)nc2sccn12 [Example 30, 2-[1-(6-chloro-imidazo[2,1-b][1,3]thiazole-5-sulfonyl)-5-methoxy-1H-indol-3-yl]ethylamine] | 0.011 |  |
| COc1ccc2c(CCN)cn(S(=O)(=O)c3c(Cl)nc4sccn34)c2c1 [Example 31, 2-[1-(6-chloro-imidazo[2,1-b][1,3]thiazole-5-sulfonyl)-6-methoxy-1H-indol-3-yl]ethylamine] | 0.013 |  |
| NCCc1cn(S(=O)(=O)c2c(Cl)nc3sccn23)c2ccc(Br)cc12 [Example 32, 2-[5-bromo-1-(6-chloro-imidazo[2,1-b][1,3]thiazole-5-sulfonyl)-1H-indol-3-yl]ethylamine] | 0.074 |  |
| NCCc1cn(S(=O)(=O)c2c(Cl)nc3sccn23)c2ccc(OCc3ccccc3)cc12 [Example 33, 2-[5-benzyloxy-1-(6-chloro-imidazo[2,1-b][1,3]thiazole-5-sulfonyl)-1H-indol-3-yl]ethylamine] | 0.169 |  |
| Cc1ccc2c(c1)c(CCN)cn2S(=O)(=O)c1c(Cl)nc2sccn12 [Example 34, 2-[1-(6-chloro-imidazo[2,1-b][1,3]thiazole-5-sulfonyl)-5-methyl-1H-indol-3-yl]ethylamine] | 0.031 |  |
| Cc1ccc2c(CCN)cn(S(=O)(=O)c3c(Cl)nc4sccn34)c2c1 [Example 35, 2-[1-(6-chloro-imidazo[2,1-b][1,3]thiazole-5-sulfonyl)-6-methyl-1H-indol-3-yl]ethylamine] | 0.006 |  |
| Cc1cccc2c(CCN)cn(S(=O)(=O)c3c(Cl)nc4sccn34)c12 [Example 36, 2-[1-(6-chloro-imidazo[2,1-b][1,3]thiazole-5-sulfonyl)-7-methyl-1H-indol-3-yl]ethylamine] | 0.348 |  |
| NCCc1cn(S(=O)(=O)c2c(Cl)nc3sccn23)c2ccc(O)cc12 [Example 37, 3-(2-amino-ethyl)-1-(6-chloro-imidazo[2,1-b][1,3]thiazole-5-sulfonyl)-1H-indol-5-ol] | 0.004 |  |
| NCCc1cn(S(=O)(=O)c2c(Cl)nc3sccn23)c2ccc(F)cc12 [Example 38, 2-[1-(6-chloro-imidazo[2,1-b][1,3]thiazole-5-sulfonyl)-5-fluoro-1H-indol-3-yl]ethylamine] | 0.009 |  |
| NCCc1cn(S(=O)(=O)c2c(Cl)nc3sccn23)c2cc(F)ccc12 [Example 39, 2-[1-(6-chloro-imidazo[2,1-b][1,3]thiazole-5-sulfonyl)-6-fluoro-1H-indol-3-yl]ethylamine] | 0.005 |  |
| NCCc1cn(S(=O)(=O)c2cnc3sccn23)c2ccccc12 [Example 40, 2-{1-[(imidazo[2,1-b][1,3]thiazol-5-yl)sulfonyl]-1H-indol-3-yl}ethylamine] | 0.0012 |  |
| NCCCc1cn(S(=O)(=O)c2c(Cl)nc3sccn23)c2ccc(F)cc12 [Example 45, 3-{1-[(6–Chloroimidazo[2,1-b][1,3]thiazol-5-yl)sulfonyl]-5-fluoro-1H-indol-3-yl}propan-1-amine] |  | 0.048 |
| {2-[1-(2-chloro-benzo[d]imidazo[2,1-b][1,3]thiazole-3-sulfonyl)-1H-indol-3-yl]ethyl}dimethylamine [Example 25] |  | 0.037 |
| {2-[1-(2-chloro-benzo[d]imidazo[2,1-b][1,3]thiazole-3-sulfonyl)-1H-indol-3-yl]ethyl}methylamine [Example 22] |  | 0.051 |
